Laboratory results as given in patent US10973748B2, “Compositions and methods for lightening skin and reducing hyperpigmentation” (Versitech Limited, priority 2016, dated 2021).

How the values were obtained:
[1] = tested on: microphthalmia-associated transcription factor (MITF); experiment: Western blotting of MITF expression in melan-a cells; format: cell-based, murine; conditions: α-MSH, 72 hrs, 20 μM
Protocol: (§1) Melan-a cells (3×10^5 cells/well) were seeded in 4 mL of culture medium in a 6-well plate for at least 24 hrs prior to use. The cells were treated with α-MSH (1 μM) alone, α-MSH plus plus different concentration of agents for 72 hrs. The cells were washed with cold PBS and then lysed in 100 μL of RIPA buffer containing 1% Nonidet P-40, 0.1% sodium dodecylsulfate, 0.5% sodium deoxycholate, and 2% protease inhibitor at 4° C. Samples were centrifuged at 14,000 rpm for 30 mins at 4° C., and total proteins in the supernatant were separated. 10 μg of denatured proteins were loaded per lane, and separated by 10% SDS-PAGE gel. Proteins were then transferred to Immobilon-P Transfer Membranes (Millipore Co., Bed-ford, Mass.) by semidry transfer. Membranes were incubated with primary antibodies specific for Tyrosinase, tyrosinase-related protein-1 (TRP1), tyrosinase-related protein-2 (TRP2), and microphthalmia-associated transcription factor (MITF). The blots were subsequently washed and incubated with the appropriate secondary antibodies. Immunoreactive protein bands were visualized with enhanced chemiluminescence western blotting detection reagents and quantified using an ODYSSEY Fc Imaging system. The amounts of protein loaded were normalized against a control protein, β-actin.

[2] = tested on: MelanoDerm (Mel-300-A) epidermal equivalents containing melanocytes; experiment: Fontana-Masson silver staining of artificial skin model; format: cell-based, human; conditions: day 14, rapamycin 2.5 μM, 6-CEPN 10 μM
Protocol: Epidermal equivalents containing melanocytes (Mel-300-A) were maintained according to the manufacturer's instructions. Mel-300-A tissue was cultured in EPI-100-NMM-113 medium for 14 days. Agents were dissolved in tissue culture medium and changed every other day. The test agents were either (1) rapamycin (2.5 μM), as the positive control in depigmentation, (2) 6-CEPN (10 μM), or (3) 8-CEPQ (5 μM). The concentration of rapamycin used was lower than 6-CEPN and 8-CEPQ, as rapamycin is toxic to cells at higher concentration. Pigmentation of these skin equivalents was compared against treatment of cells with a culture medium only (denoted as “vehicle”). Tissue viability was assessed on day 14 by CCK-8 assay as described in Example 1. On day 14, single tissues were harvested and photographed. The L* parameter was used to evaluate skin lightening or darkening. The lighter the skin, the greater the L* value. ΔL* value was measured by a Chroma Meter CR400 (Konica Minolta) for an evaluation of lightening as a function of time. Three tissues for each treatment were frozen for the Solvable Melanin assay (Bessou-Touya et al., “Chimeric human epidermal reconstructs to study the role of melanocytes and keratinocytes in pigmentation and photoprotection.” Journal of investigative dermatology 111(6):1103-1108 (1998)). Additional tissues were fixed by 10% formanin. For melanin staining in paraffin-embedded tissues, Fontana-Masson silver staining was used as previously detailed (Barbosa et al., “A simple and economical modification of the Masson-Fontana method for staining melanin granules and enterochromaffin cells.” Stain technology 59(4):193-196 (1984)).

[3] = tested on: microtubule-associated protein light chain 3 (LC-3); experiment: Western blot of LC-3 conversion (autophagy marker); format: cell-based, murine; conditions: melan-a cells, α-MSH and TPA, 72 hrs, 6-CEPN 10 or 20 μM
Protocol: Melan-a cells (3×10^5 cells/well) were seeded in a 6-well plate with 4 mL RPMI 1640 medium and 10% FBS. Melan-a cells were then transfected with 10 nM siRNA against autophagy-related protein 7 (ATG-7) or with the same concentration of a control siRNA, using HiPerfect Transfection Reagent. After 72 hrs of incubation, cell culture medium was replaced. Cells were then treated for 72 hrs with (1) α-MSH (1 μM) and TPA; (2) α-MSH (1 μM), TPA, and 6-CEPN (10 μM); or (3) α-MSH (1 μM), TPA, and 6-CEPN (20 μM). Total protein of cells was collected as described in the Western blotting in Example 2. The expressions of autophagy related proteins ATG-7 and microtubule-associated protein light chain 3 (LC-3) were analyzed by Western blot. LC-3 was selected because it was widely used to monitor autophagy. LC-3 can convert from a cytosolic form (i.e., LC-3 I) to a lipidated form (i.e., LC-3 II), the latter of which is attached to the autophagosome membrane (Mizushima N, et al., Autophagy, 3(6): 542-545 (2007)). ATG-7 is a required component in the conjugation of other autophagy-related proteins (e.g., the conjugation between ATG-12 and […]), which ultimately leads to the formation of autophagosome (“Autophagy Signaling Pathway,” Cell Signaling Technology, revised online October 2012).

[4] = tested on: MelanoDerm (Mel-300-A) epidermal equivalents containing melanocytes; experiment: Solvable Melanin assay in artificial skin model; format: cell-based, human; conditions: 14 days, rapamycin 2.5 μM, 6-CEPN 10 μM, 8-CEPQ 5 μM
Protocol: Epidermal equivalents containing melanocytes (Mel-300-A) were maintained according to the manufacturer's instructions. Mel-300-A tissue was cultured in EPI-100-NMM-113 medium for 14 days. Agents were dissolved in tissue culture medium and changed every other day. The test agents were either (1) rapamycin (2.5 μM), as the positive control in depigmentation, (2) 6-CEPN (10 μM), or (3) 8-CEPQ (5 μM). The concentration of rapamycin used was lower than 6-CEPN and 8-CEPQ, as rapamycin is toxic to cells at higher concentration. Pigmentation of these skin equivalents was compared against treatment of cells with a culture medium only (denoted as “vehicle”). Tissue viability was assessed on day 14 by CCK-8 assay as described in Example 1. On day 14, single tissues were harvested and photographed. The L* parameter was used to evaluate skin lightening or darkening. The lighter the skin, the greater the L* value. ΔL* value was measured by a Chroma Meter CR400 (Konica Minolta) for an evaluation of lightening as a function of time. Three tissues for each treatment were frozen for the Solvable Melanin assay (Bessou-Touya et al., “Chimeric human epidermal reconstructs to study the role of melanocytes and keratinocytes in pigmentation and photoprotection.” Journal of investigative dermatology 111(6):1103-1108 (1998)). Additional tissues were fixed by 10% formanin. […]

[5] = tested on: tyrosinase-related protein-2 (TRP2); experiment: Western blotting of TRP-2 protein level in melan-a cells; format: cell-based, murine; conditions: α-MSH, 72 hrs, 20 μM
Protocol: as §1

## O=C1C[C@@H](c2ccc(O)cc2)Oc2cc(O)c(/C=C/c3ccccc3)c(O)c21 [6-CEPN, 6-C-(E-phenylethenyl)-naringenin]
[1]
  expression of MITF: no clear inhibition
[2]
  melanin content and distribution (Fontana Masson staining): significant decrease in the melanin content and distribution
  thickness of basal layer of tissue: without causing reduction in the thickness of basal layer of tissue
[3]
  conversion of LC-3 I to LC-3 II: increased the conversion of LC-3 I to LC-3 II
[4]
  amount of melanin in human skin equivalents: significantly inhibited the amount of melanin
[5]
  protein level of TRP-2: significantly suppressed
